Values of other authors as cited in patent publication US5525603A, “Compositions, methods and kits for potentiating antitumor effect and for treating tumor” (priority 1991, dated 1996).

Key:
[1] = in combination with 5-FU or 5-FU derivative
[2] = tested on: oral cavity, gastrointestinal tissue; settings: prolonged presence in the living body, continuous intravenous infusion of 5-FU alone

| SMILES | effect on antitumor effect of 5-FU or 5-FU derivative [1] | inhibition of inflammation caused by 5-FU or 5-FU derivative [1] | disorder (inflammation) in the oral cavity, gastrointestinal tissue and the like [2] |
| --- | --- | --- | --- |
| O=C(O)c1nc(=O)[nH]c(=O)[nH]1 [oxonic acid] | reduces the antitumor effect of 5-FU or 5-FU derivative | can inhibit the occurrence of inflammation caused by 5-FU or 5-FU derivative |  |
| O=c1[nH]cc(F)c(=O)[nH]1 [5-FU, 5-fluorouracil] |  |  | likely to cause a disorder (inflammation) in the oral cavity, gastrointestinal tissue and the like |
